We go through eleven compounds from ChEMBL document CHEMBL1201862, “PubChem BioAssay data set” (2004).

The structures appear in SMILES notation.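 Values below derive from 48-hour exposures of cells grown in 96-well plates, with endpoints linearly interpolated between the two concentrations bracketing the appropriate inhibition level. At the GI50, growth is halved.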 Activity calls are given as the source filed them. Rule as the data show it: active = GI50 up to about 1.1 µM and inactive = higher. Some results are limits rather than exact numbers.

Holding throughout (test): NCI anticancer screen, dose series, 48 h
Test [1] concerns BT-549.
In test [2] the test system is CAKI-1.
The subject of test [3] is COLO 205.
The subject of test [4] is DU-145.
Test [5] relates to HCC 2998.
The subject of test [6] is HCT-15.
The subject of test [7] is HT-29.
For test [8], the system named is KM12.
Test [9] relates to MDA-MB-435.
Test [10] deals with NCI-H226.
In test [11] the test system is NCI-H23.
The subject of test [12] is OVCAR-3.
Test [13] relates to OVCAR-4.
The subject of test [14] is OVCAR-8.
The subject of test [15] is RXF 393.
In test [16] the test system is SF-295.
Test [17] concerns SW-620.
For test [18], the system named is U-251.
The subject of test [19] is SF-268.
Test [20] relates to T47D.

Regarding `COc1nc2c(c(=O)[nH]1)N=C(c1ccc(Cl)cc1)CC(c1ccccc1)N2` (stereo not given), the GI50 in test [1] is 31.2 µM (inactive); in test [2], 28.2 µM (inactive); in test [3], 38.8 µM (inactive); in [4], 40.6 µM (inactive); in [5], 34 µM (inactive); in [6] it was 24.2 µM. Besides, the GI50 in test [7] was 34.5 µM (inactive); in test [8], 37.2 µM (inactive); in test [9], 34 µM (inactive); in test [10], 29.4 µM (inactive); in [11], 49.2 µM (inactive); in [12], 37.8 µM (inactive). For the same compound, the GI50 is 22.7 µM (inactive) in [13]; 21.2 µM (inactive) in [14]; 23.9 µM (inactive) in test [15]; 23.1 µM (inactive) in test [16]; 44.6 µM (inactive) in test [17]; 35.6 µM (inactive) in test [18].

For the compound `Cc1cn([C@H]2[C@@H](CO)C[C@H]2O)c(=O)[nH]c1=O`, the GI50 in test [1] was > 100 µM (inactive); in [2], > 100 µM (inactive); in test [3], > 100 µM (inactive); in [4], > 100 µM (inactive); in test [5] it was > 100 µM (inactive); in [6] it was greater than 100 µM. Moreover, the GI50 in test [7], in test [8], in test [9], in test [10], in test [11] and in test [12] was > 100 µM (inactive) each time. Also, the GI50 in test [13], in test [14], in test [15], in test [19], in test [16] and in test [17] was > 100 µM (inactive) in each case. For the same compound, the GI50 in test [18] was > 100 µM (inactive).

Regarding `CC(=O)O[C@H]1C(=O)[C@]2(C)[C@@H](OC(=O)OCCC(O)CO)C[C@H]3OC[C@@]3(OC(C)=O)[C@H]2[C@H](OC(=O)c2ccccc2)[C@]2(O)C[C@H](OC(=O)[C@H](O)[C@@H](NC(=O)c3ccccc3)c3ccccc3)C(C)=C1C2(C)C` (stereo not given in full), the GI50 in test [1] is 0.0667 µM (active); in test [2], 2.26 µM (inactive); in test [3] it was < 0.01 µM (active); in [4], 0.0125 µM (active); in test [5], < 0.01 µM (active); in test [6] it was 2.14 µM. The GI50 in [7] was < 0.01 µM (active); in test [8], < 0.01 µM (active); in test [9] it was < 0.01 µM (active); in test [10], < 0.0228 µM (active); in test [11], < 0.0127 µM (active); in [12], < 0.01 µM (active). Also, the GI50 in [13] was 13.9 µM (inactive); in test [14] it was 0.0463 µM (active); in test [15] it was 0.213 µM (active); in test [19] it was < 0.0171 µM (active); in test [16], 0.193 µM (active); in test [17], < 0.0251 µM (active). Besides, the GI50 in test [18] is 0.0135 µM (active).

Consider `C=C1C[C@]23CC[C@@H]4C(CO)(CO)CC(=O)C[C@]4(C)[C@@H]2CC[C@H]1C3`, for which the GI50 was > 100 µM (inactive) in test [1]; > 100 µM (inactive) in test [2]; > 100 µM (inactive) in [3]; > 100 µM (inactive) in [4]; > 100 µM (inactive) in test [5]; greater than 100 µM in [6]. In addition, the GI50 in test [7] was > 100 µM (inactive); in test [9] it was > 100 µM (inactive); in [10] it was 93.8 µM (inactive); in [11], > 100 µM (inactive); in [12], > 100 µM (inactive); in test [13] it was > 100 µM (inactive). The GI50 in test [14], in [19], in test [16], in [17] and in test [18] was > 100 µM (inactive) each time.

Turning to `COC(=O)c1cnc(Cl)cn1`, the GI50 was 37 µM (inactive) in test [1]; 17.5 µM (inactive) in [2]; > 100 µM (inactive) in [3]; > 100 µM (inactive) in [4]; 17.3 µM in [6]; 54.3 µM (inactive) in test [7]. In addition, the GI50 in test [8] is 24.9 µM (inactive); in test [9] it was 48.4 µM (inactive); in test [10], 35.2 µM (inactive); in [11], 20.1 µM (inactive); in [13], 20.2 µM (inactive); in test [14] it was 73.5 µM (inactive). Further, the GI50 is 49 µM (inactive) in [19]; > 100 µM (inactive) in [16]; 63.7 µM (inactive) in [17]; 40.3 µM (inactive) in [20]; 34.9 µM (inactive) in test [18].

In the case of `O=C(O/C=C\OC1CCCC1(c1ccccc1)c1ccccc1)c1ccccc1` (stereo not given), the GI50 in test [1] is 2.12 µM (inactive); in test [2], > 46.1 µM (inactive); in [3], 15.6 µM (inactive); in [4] it was 3.02 µM (inactive); in test [5], 18.7 µM (inactive); in test [6], 2.23 µM. Moreover, the GI50 is 3.44 µM (inactive) in [7]; 14.9 µM (inactive) in [8]; 19.8 µM (inactive) in [10]; 2.19 µM (inactive) in test [11]; 9.2 µM (inactive) in test [12]; 3.15 µM (inactive) in [13]. For the same compound, the GI50 is 3 µM (inactive) in test [14]; 2.49 µM (inactive) in [15]; 4.05 µM (inactive) in test [19]; 19.2 µM (inactive) in [16]; 2.7 µM (inactive) in test [17]; 1.61 µM (inactive) in [20]. In test [18], the GI50 was 3.66 µM (inactive).

Turning to `C/C=C/c1c(O)c(=O)c2c(OC)cc(OC)c3c4c(OC)cc(OC)c5c(=O)c(O)c(/C=C/C)c(c1c23)c54`, the GI50 in [1] was 3.1 µM (inactive); in test [2], 6.14 µM (inactive); in [3], 3.7 µM (inactive); in [4] it was 8.07 µM (inactive); in test [5], 16.6 µM (inactive); in test [6] it was 6.49 µM. In addition, the GI50 in test [7] was 6.22 µM (inactive); in test [8], 10.9 µM (inactive); in test [9] it was 5.82 µM (inactive); in test [10], < 0.01 µM (active); in [11], 7.59 µM (inactive); in [12] it was 3.99 µM (inactive). The GI50 in [13] is 13 µM (inactive); in [14], 6.35 µM (inactive); in test [19] it was 7.66 µM (inactive); in [16], 44.5 µM (inactive); in [17], 6.55 µM (inactive); in test [18], 7.23 µM (inactive).

As for `CC(C)NC(=O)N(Nc1ccccc1)C(C)(C)C`, the GI50 was > 100 µM (inactive) in test [1]; > 100 µM (inactive) in [2]; > 100 µM (inactive) in test [3]; > 100 µM (inactive) in test [5]; greater than 100 µM in test [6]; > 100 µM (inactive) in test [7]. For the same compound, the GI50 in [8], in test [10], in test [11], in test [12], in [13] and in test [14] was > 100 µM (inactive) each time. Moreover, the GI50 in [15], in [16], in test [17] and in test [18] was > 100 µM (inactive) in each case.

Turning to `CCOC(=O)Cc1csc(NC(NC(=O)OCC)(C(=O)OCC)C(F)(F)F)n1` (stereo not given), the GI50 in [2] was > 100 µM (inactive); in test [3] it was > 100 µM (inactive); in test [4], > 100 µM (inactive); in [5] it was > 100 µM (inactive); in test [6], greater than 100 µM; in test [7], > 100 µM (inactive). In addition, the GI50 in test [8], in test [9], in test [10], in [11], in test [12] and in test [13] was > 100 µM (inactive) throughout. The GI50 in [14], in [15], in [19], in test [16], in test [17] and in test [20] was > 100 µM (inactive) in each case. Further, in test [18], the GI50 is > 100 µM (inactive).

On to `CC(NC1=NCCO1)c1ccco1` (stereo not given), for which the GI50 in test [2] was > 100 µM (inactive); in test [3], 79.8 µM (inactive); in [4], > 100 µM (inactive); in test [5] it was > 100 µM (inactive); in test [6], greater than 100 µM; in test [7], 93.8 µM (inactive). Also, the GI50 was 20.3 µM (inactive) in test [8]; > 100 µM (inactive) in test [9]; > 100 µM (inactive) in test [10]; > 100 µM (inactive) in test [11]; > 100 µM (inactive) in test [12]; > 100 µM (inactive) in test [13]. The GI50 in test [14], in [15], in test [19], in test [16], in [17] and in test [20] was > 100 µM (inactive) throughout. In [18], the GI50 is > 100 µM (inactive).

For the compound `C/C(CC(O)(C(F)(F)F)C(F)(F)F)=N\NC(N)=O`, the GI50 is > 10 µM (inactive) in test [2]; > 10 µM (inactive) in test [3]; > 10 µM (inactive) in test [4]; > 10 µM (inactive) in test [5]; greater than 10 µM in test [6]; > 10 µM (inactive) in [7]. The GI50 in [8], in test [9], in test [10], in [11], in [12] and in [13] was > 10 µM (inactive) in each case. Also, the GI50 in [14], in [15], in test [19], in test [16], in test [17] and in test [20] was > 10 µM (inactive) in each case. Further, the GI50 in test [18] was > 10 µM (inactive).
